Changes are numbered by the printed parent chain. Names and notes keep the numbering of the source. Like-named read-outs stand apart in the source and are kept apart here. Marks after values point to notes of the source that are not given here.
What was measured:
D28A YPDC = target: T1, D28A YPDC (Saccharomyces cerevisiae, UniProt P06169, D28A); assay: CD titration with propionylphosphinate; assay type: binding; conditions: pH 6.0, 25 °C
T1 sequence (P06169 1-563 D28A): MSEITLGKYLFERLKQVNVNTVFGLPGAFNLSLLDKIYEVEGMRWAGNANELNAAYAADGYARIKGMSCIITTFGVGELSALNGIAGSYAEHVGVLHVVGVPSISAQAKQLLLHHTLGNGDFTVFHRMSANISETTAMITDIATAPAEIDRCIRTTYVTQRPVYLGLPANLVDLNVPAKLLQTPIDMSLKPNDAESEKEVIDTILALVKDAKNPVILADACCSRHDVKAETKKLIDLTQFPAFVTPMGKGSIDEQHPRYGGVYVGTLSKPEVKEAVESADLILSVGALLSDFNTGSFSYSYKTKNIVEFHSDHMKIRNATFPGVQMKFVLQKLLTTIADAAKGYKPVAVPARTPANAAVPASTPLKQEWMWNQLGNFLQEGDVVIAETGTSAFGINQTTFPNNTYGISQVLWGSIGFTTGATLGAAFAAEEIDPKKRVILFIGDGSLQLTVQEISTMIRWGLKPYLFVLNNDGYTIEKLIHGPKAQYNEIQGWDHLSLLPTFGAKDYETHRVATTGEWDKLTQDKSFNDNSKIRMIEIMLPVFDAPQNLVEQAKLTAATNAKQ

E477Q YPDC = target: T2, E477Q YPDC (Saccharomyces cerevisiae, UniProt P06169, E477Q); assay: CD titration with propionylphosphinate; assay type: binding; conditions: pH 6.0, 25 °C
T2 sequence (P06169 1-563 E477Q): T1 sequence (P06169 1-563 D28A) with A28D, E477Q

YPDC = target: T3, YPDC (Saccharomyces cerevisiae, UniProt P06169); assay: CD titration with propionylphosphinate; assay type: binding; conditions: for Kd: pH 6.0, 25 °C
T3 sequence (P06169 1-563): T1 sequence (P06169 1-563 D28A) with A28D

C221E/C222A YPDC = target: T4, C221E/C222A YPDC (Saccharomyces cerevisiae, UniProt P06169, C221E/C222A); assay: CD titration with propionylphosphinate; assay type: binding; conditions: IP form of PPThDP
T4 sequence (P06169 1-563 C221E/C222A): T1 sequence (P06169 1-563 D28A) with A28D, C221E, C222A

E51D YPDC = target: T5, E51D YPDC (Saccharomyces cerevisiae, UniProt P06169, E51D); assay: CD titration with propionylphosphinate; assay type: binding
T5 sequence (P06169 1-563 E51D): T1 sequence (P06169 1-563 D28A) with A28D, E51D

E91D YPDC = target: T6, E91D YPDC (Saccharomyces cerevisiae, UniProt P06169, E91D); assay: CD titration with propionylphosphinate; assay type: binding; conditions: for Kd: pH 6.0, 25 °C
T6 sequence (P06169 1-563 E91D): T1 sequence (P06169 1-563 D28A) with A28D, E91D

[1] = system: yeast pyruvate decarboxylase (YPDC); assay type: biochemical, Saccharomyces cerevisiae; conditions: 40 mM pyruvate in syringe, 10 °C, pH 6.0
[2] = system: yeast pyruvate decarboxylase (YPDC); conditions: reaction with pyruvate; cited from earlier work
[3] = system: yeast pyruvate decarboxylase (YPDC); assay: YPDC assay coupled to alcohol dehydrogenase/NADH; assay type: biochemical, Saccharomyces cerevisiae; conditions: pyruvate as substrate, pH 6.0, 30 °C; for kcat / subunit: per subunit
[4] = system: yeast pyruvate decarboxylase (YPDC); conditions: pyruvate as substrate; cited from earlier work
[5] = read-out: Kd^app (IP), 1′,4′-iminopyrimidine tautomer of PPThDP, CD band at 297 nm
[6] = read-out: Kd^app (MC), Michaelis complex, negative CD band at 330 nm

CCC(=O)[PH](=O)[O-].[Na+] [PP, sodium propionylphosphinate]
Kd^app (D28A YPDC): Not detected
Kd^app (E477Q YPDC): Not detected
CD max (IP) (YPDC; IP form of PPThDP, 297 nm): 15.8 ± 0.79 (IP) mdeg
Kd (YPDC; [5]): 7.82 ± 0.55 mM
Kd (YPDC; [6]): 9.1 ± 0.45 mM
CD max (IP) (C221E/C222A YPDC): 4.7 ± 0.77 (IP) mdeg
CD max (IP) (E51D YPDC; IP form of PPThDP): 21.6 ± 0.54 (IP) mdeg
Kd (E51D YPDC; read-out: Kd^app (IP), 1′,4′-iminopyrimidine tautomer of PPThDP, CD band at 297 nm, pH 6.0, 25 °C): 13.6 ± 0.35 mM
CD max (IP) (E91D YPDC; IP form of PPThDP, 297 nm): 7.6 ± 0.63 (IP) mdeg
CD max (MC) (E91D YPDC; Michaelis complex, 330 nm): −2.85 ± 0.18 (MC) mdeg
Kd (E91D YPDC; [5]): 7.02 ± 1.34 mM
Kd (E91D YPDC; [6]): 8.02 ± 0.92 mM

B1: YPDC: wild type yeast pyruvate decarboxylase (EC 4.1.1.1) isolated from Saccharomyces cerevisiae (protein, UniProt P06169 2-563, looked up)
Pyruvate decarboxylase …: SEITLGKYLFERLKQVNVNTVFGLPGDFNLSLLDKIYEVEGMRWAGNANELNAAYAADGYARIKGMSCIITTFGVGELSALNGIAGSYAEHVGVLHVVGVPSISAQAKQLLLHHTLGNGDFTVFHRMSANISETTAMITDIATAPAEIDRCIRTTYVTQRPVYLGLPANLVDLNVPAKLLQTPIDMSLKPNDAESEKEVIDTILALVKDAKNPVILADACCSRHDVKAETKKLIDLTQFPAFVTPMGKGSIDEQHPRYGGVYVGTLSKPEVKEAVESADLILSVGALLSDFNTGSFSYSYKTKNIVEFHSDHMKIRNATFPGVQMKFVLQKLLTTIADAAKGYKPVAVPARTPANAAVPASTPLKQEWMWNQLGNFLQEGDVVIAETGTSAFGINQTTFPNNTYGISQVLWGSIGFTTGATLGAAFAAEEIDPKKRVILFIGDGSLQLTVQEISTMIRWGLKPYLFVLNNDGYTIEKLIHGPKAQYNEIQGWDHLSLLPTFGAKDYETHRVATTGEWDKLTQDKSFNDNSKIRMIEIMLPVFDAPQNLVEQAKLTAATNAKQ
rate constant of accumulation of IP tautomer (LThDP), CD signal at 313 nm [1]: 312 s⁻¹
k′2 (net forward rate constant of LThDP formation) [2]: 294 ± 20 s⁻¹
kcat / subunit [3]: 60 s⁻¹
S0.5 [3]: 1.1 ± 0.2 mM

B2: E477Q: variant at the indicated position of YPDC (protein, UniProt P06169 2-563, looked up, variant E477Q)
Pyruvate decarboxylase …: B1 Pyruvate decarboxylase … with E476Q
S0.5 [4]: 3.02 ± 0.22 ^b mM
kcat / subunit [3]: 0.086 s⁻¹

B3: D28A: variant at the indicated position of YPDC (protein, UniProt P06169 2-563, looked up, variant D28A)
Pyruvate decarboxylase …: B1 Pyruvate decarboxylase … with D27A
S0.5 [4]: 1.66 ± 0.25 ^b mM
kcat / subunit [3]: 0.066 s⁻¹
